Reference: publication PMC9332833 (Cancers, 2022)

Columns and labels:
[1] = system: CD34+ cells from CML patients; test: Annexin V apoptosis assay, CML CD34+ cells; type: cell-based; settings: Homo sapiens, 24 h
Experimental: Blood samples were taken (venipuncture, EDTA-K2 Vacutainer tubes, Becton Dickinson, Franklin Lakes, NJ, USA) from 8 chronic phase CML patients (CML1–CML8; 4 men and 4 women, aged 39–79) diagnosed at the Department of Hematology, University Clinical Center, Medical University of Warsaw, following their written consent. The diagnosis was carried out by qualified clinical staff based on an interview, blood parameters and molecular tests detecting BCR-ABL1 (transcript b3a2). Peripheral blood mononuclear cells were immediately isolated from the fresh blood sample using standard protocol (Supplementary Methods). […]
Cells were seeded in 6-well plates (K562 or K562-MDR1) or in 24-well plates (CD34^+ cells). […] After a further 24 h, cells were stained using the Annexin V-FITC kit for the detection of apoptosis (BD, Franklin Lakes, NJ, USA) and immediately analyzed on a BD FACSCalibur using CellQuest software (BD, Franklin Lakes, NJ, USA). […]
incubated overnight at 37 °C and analyzed using an iMark Microp late absorbance reader (Bio-Rad, Hercules, CA, USA). Results were calculated relative to control cells treated with DMSO only.
[…] Stained cells were immediately analyzed on a BD FACSCalibur using CellQuest softwa re (BD, Franklin Lakes, NJ, USA). […]

[2] = system: K562 cells; test: Immunoblotting of CML signaling proteins; type: cell-based, human; settings: 5 µM
Experimental: K562 cells were plated at a concentration of 1–2 × 10^5 cells/mL in a 6-well plate. After 24 h of pre-incubation, BK124.1 or DMSO was added and cells were incubated for a specified time, after which cells were lysed with RIPA buffer (Sigma-Aldrich, St. Louis, MO, USA) and supplemented with c0mplete Protease Inhibitor (Roche, Basel, Switzerland) and PhosSTOP (Roche, Basel, Switzerland). Protein concentration was measured using Pierce BCA Protein Assay Kit (Thermo Fisher Scientific, Waltham, MA, USA) and adjusted to contain equal amount of protein (20 µg) in equal volume. Protein lysates were separated by SDS-PAGE electrophoresis (TGX StainFree, Bio-Rad, Hercules, CA, USA) and transferred onto the PVDF membranes (AppliChem GmbH ITW Reagents, Darmstadt, Germany). Membranes were blocked with 5% non-fat powdered milk, then incubated with primary antibodies overnight at 4 °C followed by HRP-conjugated antibodies (Supplementary Methods). Blots were developed using Clarity Western ECL Substrate and analyzed with ChemiDoc XRS+ (Bio-Rad, Hercules, CA, USA). Protein levels normalized to controls were determined using ImageJ software.
K562 cells were plated at a concentration of 1.5 × 10^5 cells/mL in a 6-well plate. After 24 h pre-incubation, BK124.1 in DMSO was added and incubated for the specified time. Next, cytosolic and nuclear cell fractions were separated as described. […]

[3] = Toxicity in Balb/c nude mice; type: in vivo
Experimental: […] The compound blood concentration was measured 15 min, 6, 12, and 24 h post-injection. For each time point, 4 mice were sacrificed. BK124.1 concentration in the bloodstream was analyzed using mass spectrometry. Toxicology was assessed by examining physiological and morphological changes at the injection site, the appearance of internal organs (liver, heart, kidneys, and spleen), blood tests, body mass, and animal behavior.

For `CCC12C(=O)C(CC)(C(c3ccccc3)=C1c1ccccc1)C1C(=O)N(CC(O)CNC(C)C)C(=O)C12` (stereo not drawn) [BK124.1, 4-[2-hydroxy-3-(propan-2-ylamino)propyl]-1,7-diethyl-8,9-diphenyl-4-azatricyclo [5.2.1.02,6]dec-8-ene-3,5,10-trione], the viability at […] ([1]; 2.5 µM) was 10%, the viability at 5 µM ([1]; 5 µM) was 5% and the “Level of BCR-ABL1, STAT5, AKT, mTOR and NF-κB proteins” value ([2]; first changes after 4 and 8 h) was “decrease in the level”. The “Level of FOXO3A and p21waf1/cip1 proteins” value ([2]; from 4 h, maximum after 8 h, mainly nuclear fraction) was “increase in the level”, the “Toxic effects in weight and internal organs' appearance” value ([3]; IP 40 mg/kg) was “some minor toxic effects” and the “Toxicity at the injection site” value ([3]; intravenous administration) was “some signs of local toxicity in the tail”.
